# In paper PMC5620277, “The histone methyltransferase EZH2 as a druggable target in SHH medulloblastoma cancer stem cells” (Oncotarget, 2017):
# Key:
# neural stem cells (NSC) = assay: Western Blot of H3K27me3 and PCNA in neural stem cells (non-transformed cells); assay type: cell-based; details: 5 μM, 48 h
# Protocol: (§1) Western blots were performed according to standard procedures. Briefly, protein lysates were prepared using RIPA buffer with fresh protease inhibitors. Lysates were separated on SDS polyacrylamide gels. Proteins were transferred on nitrocellulose membrane (0.45 micron) (PerkinElmer). Membranes were blocked for 1 h at room temperature in 5% nonfat dry milk and incubated overnight at 4°C with antibodies against EZH2 (4905S Cell signaling), H3K27me3 (07-449 Millipore), PCNA (2586 Cell signaling), ACTIN (I-19 sc-1616; Santa Cruz Biotechnology), GAPDH (ab9484, Abcam), cleaved CSP-3 (D-175 9661S; Cell Signaling) and H3 (ab1971, Abcam). HRP-conjugated secondary antibodies (Santa Cruz Biotechnology) were used in combination with enhanced chemiluminescence (ECL Amersham).
# hMB-SLCs = assay: Cell viability, MTS assay, hMB-SLCs; assay type: cell-based, human
# Protocol: In both cell lines, we determined the lowest useful dose of MC3629 (5 μM) and the minimum effective time (48 h) (Figure 2D, 2E and Supplementary Figure 4A and 4B for data at 24 and 72 h). We next evaluated the performance of MC3629 on MB-SLCs in terms of cell viability in regards to other EZH2i in use, confirming the dose selection (Supplementary Figure 4C).
# (§2) To evaluate cell viability cells were plated at a density of 5×10^3 cells/well in 96-well plates and were incubated with MTS solution (CellTiter 96® AQueous One Solution Promega).
# PRMT1 = PRMT1 (Homo sapiens, UniProt Q99873); assay: Methyltransferase panel: PRMT1; assay type: biochemical; details: substrate histone H4
# Protocol: (§3) MC3629 was tested in the cell free enzymatic assay (EZH2/PRC2) in 10-dose IC50 mode with 2-fold serial dilution starting from 400 μM solution, using various histone substrates (histone H3/H4 octamer, histone H3/H4 tetramer, histone H3, and core histone) and SAM as the co-substrate. […] (Figure 2B, and Supplementary Figure 2).
# (§4) The appropriate methyltransferase (MT) substrate (0.05 mg/ml core histone for EZH1 complex, 0.05 mg/ml oligonucleosomes for DOT1L, 5 μM histone H3 (1-21) peptide for G9a, 0.05 mg/ml nucleosomes for MLL1 complex, 0.05 mg/ml core histone for SET7/9, 5 μM histone H4 for PRMT1, and 0.001 mg/ml poly(dI-dC) for DNMT1) was added in freshly prepared Reaction Buffer (50 mM Tris-HCl (pH 8.5), 5 mM MgCl2, 50 mM NaCl, 0.01% Brij35, 1 mM DTT, 1% DMSO). The MT enzyme was delivered into the substrate solution and the mixture was mixed gently. Afterwards, the tested compound dissolved in DMSO was delivered into the enzyme/substrate reaction mixture by using Acoustic Technology (Echo 550, LabCyte Inc. Sunnyvale, CA) in nanoliter range, and 1 μM ^3H-SAM was also added into the reaction mixture to initiate the reaction. The reaction mixture was incubated for 1 h at 30°C and then it was delivered to filter-paper for detection. The data were analyzed using Excel and GraphPad Prism software for IC50 curve fits (for EZH1 complex).
# MLL1 complex = MLL1 complex (Homo sapiens, UniProt Q03164); assay: Methyltransferase panel: MLL1 complex; assay type: biochemical; details: substrate nucleosomes
# Protocol: as §3, §4
# G9a = molecular target: T1, G9a (Homo sapiens, UniProt Q96KQ7); assay: Methyltransferase panel: G9a; assay type: biochemical; details: substrate histone H3 1-21
# T1 sequence (Q96KQ7 1-1210): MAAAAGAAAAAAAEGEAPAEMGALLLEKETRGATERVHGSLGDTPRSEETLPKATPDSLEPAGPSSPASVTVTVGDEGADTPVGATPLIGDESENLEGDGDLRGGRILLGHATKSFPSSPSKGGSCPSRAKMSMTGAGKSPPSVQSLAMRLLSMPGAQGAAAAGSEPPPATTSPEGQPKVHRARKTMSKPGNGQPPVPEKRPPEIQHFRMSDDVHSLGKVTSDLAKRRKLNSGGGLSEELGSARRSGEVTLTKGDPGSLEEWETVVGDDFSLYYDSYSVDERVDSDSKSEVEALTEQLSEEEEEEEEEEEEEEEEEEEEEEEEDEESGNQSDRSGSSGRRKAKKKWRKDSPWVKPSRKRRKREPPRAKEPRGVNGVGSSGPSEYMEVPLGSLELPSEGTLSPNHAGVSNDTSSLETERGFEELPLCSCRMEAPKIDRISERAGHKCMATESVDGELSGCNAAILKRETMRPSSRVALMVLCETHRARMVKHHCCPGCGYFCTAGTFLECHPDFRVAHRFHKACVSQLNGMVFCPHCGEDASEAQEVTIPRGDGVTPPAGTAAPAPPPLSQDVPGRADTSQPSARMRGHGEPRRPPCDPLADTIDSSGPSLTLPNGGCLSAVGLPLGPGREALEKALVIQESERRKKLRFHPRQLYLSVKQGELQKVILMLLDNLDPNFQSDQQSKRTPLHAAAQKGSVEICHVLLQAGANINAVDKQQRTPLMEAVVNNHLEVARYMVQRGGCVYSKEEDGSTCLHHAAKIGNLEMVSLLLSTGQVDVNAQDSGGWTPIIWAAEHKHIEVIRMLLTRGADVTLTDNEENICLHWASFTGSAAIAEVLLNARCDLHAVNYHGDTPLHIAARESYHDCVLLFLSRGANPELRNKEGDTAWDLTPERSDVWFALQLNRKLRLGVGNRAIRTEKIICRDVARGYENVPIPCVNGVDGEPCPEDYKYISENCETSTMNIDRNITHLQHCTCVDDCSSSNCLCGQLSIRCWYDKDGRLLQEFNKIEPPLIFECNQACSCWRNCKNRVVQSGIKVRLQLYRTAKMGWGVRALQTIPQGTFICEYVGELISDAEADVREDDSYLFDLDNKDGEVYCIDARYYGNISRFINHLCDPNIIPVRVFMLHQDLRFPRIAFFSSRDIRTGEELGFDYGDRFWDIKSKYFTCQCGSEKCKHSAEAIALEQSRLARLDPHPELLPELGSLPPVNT
# Protocol: as §3, §4
# [1] = tested on: H3K27me3 in cerebellum and brain; assay: H3K27me3 levels in cerebellum and brain of wild type mice after i.p. treatment; assay type: in vivo, mouse
# Protocol: CD1 wild-type mice were treated intra-peritoneally with 20 μMoles/Kg of MC3629 (n=8 for each group). Treatment was performed at the age of 8 and 10 days post natal and mice were sacrificed at 12 days post natal. Brain and cerebellum tissues were collected for analysis.
# DAOY-SLCs = assay: Western Blot of H3K27me3 and PCNA in DAOY-SLCs; assay type: cell-based; details: 5 μM, 48 h
# Protocol: as §2, §1
# Chain of PRMT1 (Q99873 whole entry, species assumed): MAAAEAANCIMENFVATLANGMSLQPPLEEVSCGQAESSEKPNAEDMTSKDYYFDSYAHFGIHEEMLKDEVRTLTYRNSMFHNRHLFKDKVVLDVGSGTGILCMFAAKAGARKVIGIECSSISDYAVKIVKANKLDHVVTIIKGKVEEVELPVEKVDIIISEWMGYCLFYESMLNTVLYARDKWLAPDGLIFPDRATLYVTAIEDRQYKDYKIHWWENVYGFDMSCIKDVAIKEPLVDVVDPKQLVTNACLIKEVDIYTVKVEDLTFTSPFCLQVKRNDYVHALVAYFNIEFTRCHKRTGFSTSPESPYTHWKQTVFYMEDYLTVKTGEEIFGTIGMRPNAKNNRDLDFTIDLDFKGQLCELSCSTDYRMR
compound,measurement,setting,value
"Cc1cc(C)c(CNC(=O)c2cnn(-c3ccccc3)c2C)c(=O)[nH]1 [MC3629, N-((4,6-dimethyl-2-oxo-1,2-dihydropyridin-3-yl)methyl)-5-methyl-1-phenyl-1H-pyrazole-4-carboxamide]",H3K27me3 and PCNA protein levels,neural stem cells (NSC),did not observe any effects
same,"minimum effective time, cell viability",hMB-SLCs,48 h
same,"cell viability, combination with shEZH2 versus shEZH2 alone","hMB-SLCs; 5 μM, 48 h",did not display any additive effect
same,"lowest useful dose, cell viability",hMB-SLCs; dose- and time-dependent experiments,5 µM
same,inhibition at 200 µM,PRMT1,5.7%
same,inhibition at 200 µM,MLL1 complex,20.7%
same,inhibition at 200 µM,G9a,5.1%
same,H3K27me3 levels in brain,[1]; 20 μMol/Kg intra-peritoneal,reduced levels
same,H3K27me3 levels in cerebellum,"[1]; 20 μMol/Kg intra-peritoneal, twice/week",significant reduction
same,ability to cross the BBB in vivo,"[1]; inferred from reduced H3K27me3 in cerebellum and brain, 20 μMol/Kg i.p.",crosses the BBB
same,H3K27me3 and PCNA levels,DAOY-SLCs,down modulated
